From ChEMBL document CHEMBL1201862, “PubChem BioAssay data set” (2004) come the findings set out here.

Molecules are shown by their SMILES.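 Briefly, cells in 96-well plates were exposed to five compound concentrations for 48 h, and endpoints were estimated by linear interpolation. GI50 is the concentration that inhibits growth by half.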 The source made the active and inactive calls. No stated cut-off is given here; in the data, active = GI50 up to about 1.1 µM and inactive = higher.

Some test systems named below: DU-145; CAKI-1; MDA-MB-231; A498; ACHN; CCRF-CEM; Malme-3M; M14; K562; NCI-H226; HCC 2998; NCI/ADR-RES; EKVX; Hs-578T; A549; OVCAR-8; SN12C; NCI-H522; SF-295; SNB-75.
What all share (experiment): NCI anticancer screen, dose series, 48 h

For the compound `O=c1[nH]c2ccccc2n1CCCN1CCC(n2c(=O)[nH]c3cc(Cl)ccc32)CC1` [DOMPERIDONE], the GI50 with DU-145 was 19 µM (inactive); in the test with CAKI-1, 15.7 µM (inactive); with MDA-MB-231, 17.6 µM (inactive); with A498, 23 µM (inactive); in the test on ACHN, 18.8 µM (inactive); in the test with CCRF-CEM it was 27.8 µM (inactive). Further, the GI50 in the test on Malme-3M is 17.5 µM (inactive); in the test on M14, 16 µM (inactive); with K562, 21.4 µM (inactive); in the test with NCI-H226, 24 µM (inactive); with HCC 2998 it was 16.7 µM (inactive); in the test with NCI/ADR-RES, 23.3 µM (inactive). In addition, the GI50 in the test on EKVX was 22.8 µM (inactive); in the test with Hs-578T it was 19.6 µM (inactive); in the test with A549 it was 21.8 µM (inactive); in the test on OVCAR-8, 18.3 µM (inactive); in the test on SN12C, 16.3 µM (inactive); with NCI-H522, 15.4 µM (inactive).
Regarding `O=S1(=O)C(c2ccccc2)C(N2CCCCC2)C1C1CC2c3ccccc3C1c1ccccc12` (stereo unspecified), the GI50 with DU-145, in the test on CAKI-1, in the test on MDA-MB-231, with A498, in the test on ACHN and in the test with SF-295 was > 100 µM (inactive) each time. Besides, the GI50 in the test with CCRF-CEM was 2.45 µM (inactive); in the test with Malme-3M, > 100 µM (inactive); in the test on M14, > 100 µM (inactive); in the test with K562, 5.56 µM (inactive); in the test on NCI-H226, > 100 µM (inactive); in the test on NCI/ADR-RES, > 28 µM (inactive). For the same compound, the GI50 was > 100 µM (inactive) in the test on EKVX; > 100 µM (inactive) with Hs-578T; 8.17 µM (inactive) in the test on A549; > 100 µM (inactive) with OVCAR-8; > 35.8 µM (inactive) in the test with SN12C; > 100 µM (inactive) in the test with SNB-75. Further, in the test with NCI-H522, the GI50 is 9.95 µM (inactive).
As for `O=S(=O)(N/C(=N\O)Nc1ccc(Cl)cc1)c1ccccc1`, the GI50 was 18.5 µM (inactive) in the test on DU-145; 2.07 µM (inactive) with CAKI-1; 29.5 µM (inactive) with MDA-MB-231; 6.67 µM (inactive) with A498; 12.2 µM (inactive) with ACHN; 36.6 µM (inactive) with SF-295. Also, the GI50 in the test on CCRF-CEM was 33.9 µM (inactive); in the test with Malme-3M, 4.34 µM (inactive); in the test with M14, 12.7 µM (inactive); in the test with K562, 6.64 µM (inactive); in the test on NCI-H226 it was 33.7 µM (inactive); with HCC 2998, 7.1 µM (inactive). Also, the GI50 was 12 µM (inactive) with NCI/ADR-RES; 10.3 µM (inactive) in the test with EKVX; 6.46 µM (inactive) with Hs-578T; 21.2 µM (inactive) in the test with A549; 10.2 µM (inactive) in the test with OVCAR-8; 11.7 µM (inactive) in the test with SN12C. Moreover, the values for the GI50 in the test with SNB-75 and with NCI-H522 were 1.71 µM (inactive) and 1.03 µM (active), respectively.
As for `CN1C(=O)C2C=C3CCCCC3=CC2N(C)C1=O` (stereo unspecified), the GI50 in the test with DU-145, with CAKI-1, in the test on MDA-MB-231, in the test on A498, with ACHN and in the test on SF-295 was > 100 µM (inactive) in each case. Further, the GI50 with CCRF-CEM, in the test on Malme-3M, in the test on M14, with K562, with NCI-H226 and in the test on HCC 2998 was > 100 µM (inactive) throughout. For the same compound, the GI50 in the test on NCI/ADR-RES is > 100 µM (inactive); in the test on EKVX, 77.4 µM (inactive); with Hs-578T it was > 100 µM (inactive); with A549 it was > 100 µM (inactive); in the test on OVCAR-8 it was > 100 µM (inactive); with SN12C, > 100 µM (inactive). Moreover, the GI50 in the test with SNB-75 and with NCI-H522 was > 100 µM (inactive) in each case.
For the compound `COc1ccc2cc(CNCCCCCCCCCCCCNCc3ccc4cc(OC)ccc4c3)ccc2c1`, the GI50 in the test on DU-145 is 30 µM (inactive); in the test on CAKI-1, 20.9 µM (inactive); with MDA-MB-231 it was 23.5 µM (inactive); in the test with A498 it was 18 µM (inactive); with ACHN it was 19.6 µM (inactive); in the test on SF-295, 19.5 µM (inactive). The GI50 was 9.46 µM (inactive) with CCRF-CEM; 16.6 µM (inactive) in the test on Malme-3M; 17.4 µM (inactive) in the test with M14; 10.4 µM (inactive) with K562; 18.5 µM (inactive) in the test with NCI-H226; 13.5 µM (inactive) in the test with HCC 2998. For the same compound, the GI50 with NCI/ADR-RES is 19.5 µM (inactive); in the test with EKVX, 20.3 µM (inactive); with Hs-578T, 15.9 µM (inactive); in the test on A549 it was 24.3 µM (inactive); with OVCAR-8, 15 µM (inactive); in the test with SN12C it was 19.7 µM (inactive). The GI50 in the test on SNB-75 is 13.9 µM (inactive); in the test with NCI-H522, 18.9 µM (inactive).
In the case of `CC1(C)CCC[C@]2(C)[C@@H](C=O)C(C=O)=CC[C@@H]12` [POLYGODIAL], the GI50 is 18.5 µM (inactive) with DU-145; 6.82 µM (inactive) in the test on CAKI-1; 10.6 µM (inactive) in the test with MDA-MB-231; 40.9 µM (inactive) with A498; 16.9 µM (inactive) in the test on ACHN; 21.9 µM (inactive) in the test with SF-295. In addition, the GI50 was 20.3 µM (inactive) with CCRF-CEM; 15.2 µM (inactive) in the test on Malme-3M; 17.5 µM (inactive) in the test on M14; 20 µM (inactive) with NCI-H226; 18.4 µM (inactive) in the test on HCC 2998; 18.6 µM (inactive) in the test on NCI/ADR-RES. In addition, the GI50 with EKVX was 24.8 µM (inactive); in the test with Hs-578T, 27.9 µM (inactive); in the test on A549 it was 37.5 µM (inactive); in the test on OVCAR-8, 16.4 µM (inactive); in the test on SN12C, 20.6 µM (inactive); in the test with NCI-H522, 15.8 µM (inactive).
Turning to `COc1cc2c3c(c4ccc(O)cc4c2cc1OC)[C@@H](O)[C@@H]1CCCN1C3`, the GI50 in the test with DU-145, in the test on CAKI-1, with MDA-MB-231, with A498, in the test with ACHN and with SF-295 was < 0.001 µM (active) throughout. The GI50 in the test with CCRF-CEM was < 0.001 µM (active); in the test with Malme-3M it was < 0.001 µM (active); in the test with M14, < 0.001 µM (active); in the test on K562, 0.00203 µM (active); with NCI-H226, < 0.001 µM (active); in the test on HCC 2998 it was < 0.001 µM (active). In addition, the GI50 is 0.00166 µM (active) in the test on NCI/ADR-RES; < 0.001 µM (active) in the test on EKVX; < 0.001 µM (active) in the test with Hs-578T; < 0.001 µM (active) with A549; < 0.001 µM (active) with OVCAR-8; < 0.001 µM (active) in the test on SN12C. Further, the GI50 in the test with SNB-75 and in the test on NCI-H522 was < 0.001 µM (active) each time.
As for `COc1ccc(-c2cc(O)c3c(C)cc(C)nc3n2)cc1`, the GI50 in the test on DU-145 was 48.4 µM (inactive); with CAKI-1, 22.9 µM (inactive); in the test with MDA-MB-231, 17.7 µM (inactive); with A498 it was 30.5 µM (inactive); in the test on ACHN it was 44.1 µM (inactive); in the test with CCRF-CEM, 16.9 µM (inactive). Also, the GI50 with Malme-3M was 29 µM (inactive); in the test on M14, 35.3 µM (inactive); in the test with K562 it was 23 µM (inactive); in the test on NCI-H226 it was 35 µM (inactive); in the test with HCC 2998 it was 43.2 µM (inactive); in the test with NCI/ADR-RES it was 33.4 µM (inactive). Also, the GI50 in the test with EKVX is 45.2 µM (inactive); in the test with Hs-578T, 27.7 µM (inactive); in the test with A549, 55.3 µM (inactive); in the test on OVCAR-8, 33.5 µM (inactive); in the test with SN12C, 44.3 µM (inactive); in the test with NCI-H522 it was 38.1 µM (inactive).
As for `O=C1Nc2ccccc2/C1=N/NC(=S)Nc1ccccc1Cl`, the GI50 was 9.27 µM (inactive) in the test with DU-145; 3.8 µM (inactive) in the test with CAKI-1; 11.3 µM (inactive) in the test with MDA-MB-231; 7.96 µM (inactive) in the test with A498; 2.19 µM (inactive) in the test with ACHN; 1.29 µM (inactive) with SF-295. For the same compound, the GI50 in the test on CCRF-CEM is 0.724 µM (active); with Malme-3M, 3.44 µM (inactive); in the test on M14 it was 1.62 µM (inactive); with K562, 1.54 µM (inactive); with NCI-H226, 10.1 µM (inactive); with HCC 2998, 34.7 µM (inactive). Besides, the GI50 with NCI/ADR-RES was 0.384 µM (active); in the test on EKVX, 4.34 µM (inactive); with Hs-578T it was 2.67 µM (inactive); in the test on A549 it was 3.58 µM (inactive); in the test on OVCAR-8 it was 2.23 µM (inactive); in the test with SN12C, 10.4 µM (inactive). Further, the figures for the GI50 in the test with SNB-75 and in the test on NCI-H522 were 2.82 µM (inactive) and 11.9 µM (inactive), respectively.
Take `COC(=O)C1=COC2OC3CC1C2C(C)O3` (stereo unspecified): the GI50 with DU-145, in the test with CAKI-1, with MDA-MB-231, with A498, with ACHN and in the test on SF-295 was > 100 µM (inactive) in each case. The GI50 with CCRF-CEM, in the test with Malme-3M, in the test on M14, with NCI-H226, in the test with HCC 2998 and in the test with NCI/ADR-RES was > 100 µM (inactive) in each case. In addition, the GI50 in the test on EKVX, with Hs-578T, in the test on A549, in the test on OVCAR-8, with SN12C and with NCI-H522 was > 100 µM (inactive) in each case.
